{"source": "patent US12303524B2", "about": "“Compositions comprising S-adenosylmethionine and a gallic acid ester” (MSI-195 HOLDINGS, LLC, priority 2012, dated 2025)", "key": {"Caco-2 cell monolayers": {"tested_on": "Caco-2 cell monolayers", "experiment": "Permeability of SAMe across Caco-2 cell monolayers with propyl gallate (Example 3)", "conditions": "for apparent permeability coefficient Papp, apical to basolateral / apparent permeability coefficient Papp, basolateral to apical: SAMe salt alone", "experimental": "The Caco-2 cell line is derived from a human colorectal carcinoma and is widely used for in vitro cell culture models for the study of gastrointestinal drug absorption (Stewart, B., (1995) Pharm. Res. 12:693). In these models, pure cell lines are grown on a semi-permeable membrane. Drug formulations are placed on the apical or basolateral side of the cell monolayer and transport is determined via measurement of drug concentrations on the other side of the membrane.\nThe Caco-2 cell line utilized here was from the American Type Culture Collection (ATCC). Caco-2 cells are grown in Dulbecco's modified Eagle's medium (DMEM, Gibco) supplemented with 20% FBS (fetal bovine serum, Gibco), 100 uM non-essential amino acids (NEAA, Gibco) and 2 mM L-glutamine (Gibco). A Beckton Dickinson BIOCOAT® HTS Caco-2 Assay System Kit was used resulting in 6.6×10^5 cells/cm^2 seeding density (BIOCOAT is a registered trademark of Collaborative Biomedical Products, Inc., Bedford, Massachusetts, USA). The cells used in transport studies were grown for 3 days before the experiments. The culturing conditions were 37° C. in an atmosphere of 5% CO2 and 100% humidity.\nA 2 mM aqueous solution of SAMe disulfate tosylate was added on the apical or basolateral side according to the manufacturer's procedure for the Caco-2 kit.\nThe permeability (Papp) of SAMe is calculated using the following formula: […]\nWhere dQ/dt is the rate of permeation, Co is the initial concentration of test agent, and A is the area of the monolayer."}, "[1]": {"experiment": "PAMPA permeability of SAMe with and without propyl gallate (Example 4)", "assay_type": "in vitro ADME", "conditions": "for Average Effective Permeability: SAMe 2 mM, 5 hr", "experimental": "Using a PAMPA (parallel artificial membrane permeability assay) model, the permeability of SAMe was measured in the presence and absence of propyl gallate.\nPAMPA methods were used to determine the permeability of substances from a donor compartment, through a lipid-infused artificial membrane into an acceptor compartment. A multi-well microtitre plate was used for the donor and a membrane/acceptor compartment is placed on top. At the beginning of the test, SAMe disulfate tosylate (with or without different concentrations of propyl gallate as indicated in Table 2 below) was added to the donor compartment, and the acceptor compartment remained drug-free. After an incubation period, the compartments were separated and the amount of SAMe was measured in each compartment. Mass balance allows calculation of SAMe that remains in the membrane."}, "[2]": {"conditions": "background statement; cited from earlier work"}, "[3]": {"experiment": "Beagle pharmacokinetics of SAMe tablets with various doses of propyl gallate (Example 6)", "conditions": "for AUC(0-inf.) ± SD / AUC(0-t) / Cmax average of individuals / T1/2 ± SD / Tmax ± SD: oral, fasted beagles", "experimental": "Tablets comprising SAMe and various amounts of propyl gallate were generated by mixing S-adenosyl-L-methionine disulfate tosylate granules (equivalent to 400 mg of SAMe ion) with the various amounts of propyl gallate listed in Table 4 below. Each mixture was pressed into a tablet and coated followed by dissolution profiling and in vivo pharmacokinetic analysis using beagle dogs.\nFor in vivo studies, fasted male beagle dogs (7-10 kg) were used as described above. Each group (6 dogs for SAMe/propyl gallate and 6 dogs for the SAMe control lacking propyl gallate) were dosed with a single orally administered enteric coated tablet, under fasted conditions, followed by 5 mL of purified water orally with a syringe to facilitate swallowing. Pharmacokinetic blood samples (2 mL each) for SAMe analysis were collected from the jugular vein using the following time points: pre-dose, 20 and 40 minutes, 1, 1.5, 2, 3, 4, 6, and 8 hours after treatment. The venipuncture blood samples were collected into tubes containing the anticoagulant K2-EDTA, and stored on wet ice pending processing. Following collection, samples were centrifuged (at 4° C.) to separate the plasma fraction from the blood cells. The resulting plasma fraction was recovered and stored frozen (at −80° C.) using polypropylene tubes pending bioanalytical analysis.\nThe concentration of SAMe in dog plasma was determined using the well established LC/MS/MS method. This method employs stable-isotope dilution liquid chromatography-electrospray […] tandem mass spectrometry (LC-ESI-MS/MS) to determine SAMe and SAH in plasma. The analysis used to calculate the main pharmacokinetic parameters (Cmax, Tmax and AUC) was conducted using GraphPad Prism® 5 software."}, "[4]": {"experiment": "Plasma SAMe in beagles after tablets of SAMe co-formulated with alkyl gallates (Example 1)", "assay_type": "in vivo, Beagle dogs", "conditions": "single enteric coated tablet, 400 mg SAMe ion co-formulated with 25 mg gallic acid ester, fasted male beagles, FIG. 1", "experimental": "Tablets comprising SAMe and various alkyl gallates of different chemical structure were generated by mixing SAMe with either methyl gallate, ethyl gallate, butyl gallate, isobutyl gallate, isoamyl gallate or octyl gallate (see structures below). Tablets were then administered to Beagle dogs and blood samples were withdrawn over time. Analysis of concentrations of SAMe in plasma was used to compare the effects of these gallic acid esters on the uptake of orally administered SAMe in the blood.\nTablets were generated by mixing 400 mg SAMe ion (from SAMe disulfate tosylate) with 25 mg gallic acid ester along with excipients (microcrystalline cellulose, sodium starch glycolate, silicon dioxide, and magnesium stearate) to make up the ˜1025 mg tablet. A commercial seal coat and then a commercial enteric coat was applied to the tablets prior to dissolution testing. Detailed dissolution profiling was performed according to USP standards at either pH 6.8 or 6.0 on each set of tablets to ensure that adequate dissolution was achieved prior to in vivo pharmacokinetic analysis.\nThe study protocol was approved by the institution's Animal Care Committee, and all animals were cared for according to regulations proposed by Agriculture Canada and the USDA.\nTen different formulations were tested in the present study. 400 mg SAMe co-formulated with 25 mg propyl gallate was compared to: SAMe control tablets (i.e., with no propyl gallate); SAMe tablets co-administered with separate 25 mg propyl gallate tablets; a commercially available SAMe product (400 mg); or 400 mg SAMe with 25 mg of either methyl gallate, ethyl gallate, butyl gallate, isobutyl gallate, isoamyl gallate or octyl gallate."}, "[5]": {"experiment": "Plasma SAMe in beagles after capsules of SAMe with gallate-related molecules (Example 2)", "assay_type": "in vivo, Beagle dogs", "conditions": "single capsule, 100 mg SAMe ion with 100 mg agent, versus BHT, propyl paraben and gallic acid, FIGS. 2A and 2B", "experimental": "BHT, propyl paraben and propyl gallate are food-grade antioxidants which have often been used in combination. […] The capsules also contained additional excipients (Microcrystalline cellulose, Sodium Starch Glycolate, Colloidal Silicon Dioxide, and Magnesium Stearate). Capsules were manually filled and in some embodiments, a layer of commercial seal coat was applied to the capsules using a fluid bed coater. Beagle dogs were administered a single orally delivered dose as described above."}, "[6]": {"conditions": "control tablet 400 mg SAMe, 0 mg Propyl Gallate"}, "[7]": {"conditions": "tablet 400 mg SAMe, 6.25 mg Propyl Gallate"}, "[8]": {"conditions": "tablet 400 mg SAMe, 25 mg Propyl Gallate"}, "[9]": {"conditions": "tablet 400 mg SAMe, 100 mg Propyl Gallate"}}}
{"compound": "C[S+](CC[C@H](N)C(=O)[O-])C[C@H]1O[C@@H](n2cnc3c(N)ncnc32)[C@H](O)[C@@H]1O.O=S(=O)(O)CCCCS(=O)(=O)O", "note": "(stereo partly drawn) [SAMe 1,4 butanedisulfonate]", "values": [{"measurement": "apparent permeability coefficient Papp, apical to basolateral", "setting": "Caco-2 cell monolayers", "value": 0.5, "unit": "×10⁻⁶ cm/s"}, {"measurement": "apparent permeability coefficient Papp, basolateral to apical", "setting": "Caco-2 cell monolayers", "value": 0.6, "unit": "×10⁻⁶ cm/s"}]}
{"compound": "C[S+](CC[C@H](N)C(=O)[O-])C[C@H]1O[C@@H](n2cnc3c(N)ncnc32)[C@H](O)[C@@H]1O", "note": "(stereo partly drawn) [SAMe, S-adenosyl-L-methionine]", "values": [{"measurement": "Average Permeability Coefficient Apical→Basolateral", "setting": "Caco-2 cell monolayers; Caco-2", "value": 1.6, "unit": "×10⁻⁶ cm/s"}, {"measurement": "Average Permeability Coefficient Basolateral→Apical", "setting": "Caco-2 cell monolayers; Caco-2", "value": 1.7, "unit": "×10⁻⁶ cm/s"}, {"measurement": "transport of SAMe across the PAMPA membrane", "setting": "[1]", "value": "essentially no transport"}, {"measurement": "Average Effective Permeability", "setting": "[1]; Propyl Gallate 0 mM", "value": 0.42, "unit": "×10⁻⁶ cm/s"}, {"measurement": "Average Effective Permeability", "setting": "[1]; Propyl Gallate 0.2 mM", "value": 0.2, "unit": "×10⁻⁶ cm/s"}, {"measurement": "Average Effective Permeability", "setting": "[1]; Propyl Gallate 2 mM", "value": 0.48, "unit": "×10⁻⁶ cm/s"}, {"measurement": "uptake of exogenous SAMe", "setting": "[2]", "value": "< 5", "unit": "%"}, {"measurement": "AUC(0-inf.) ± SD", "setting": "[3]; [6]", "value": "15,186 ± 6,831 hr*ng/mL"}, {"measurement": "AUC(0-t)", "setting": "[3]; [6]", "value": "14,756 hr*ng/mL"}, {"measurement": "Cmax average of individuals", "setting": "[3]; [6]", "value": 6731, "unit": "ng/mL"}, {"measurement": "T1/2 ± SD", "setting": "[3]; [6]", "value": "1.4 ± 0.4", "unit": "h"}, {"measurement": "Tmax ± SD", "setting": "[3]; [6]", "value": "1.8 ± 0.7", "unit": "h"}, {"measurement": "AUC(0-inf.) ± SD", "setting": "[3]; [7]", "value": "21,734 ± 9848 hr*ng/mL"}, {"measurement": "AUC(0-t)", "setting": "[3]; [7]", "value": "21,395 hr*ng/mL"}, {"measurement": "Cmax average of individuals", "setting": "[3]; [7]", "value": "11,269 ng/mL"}, {"measurement": "T1/2 ± SD", "setting": "[3]; [7]", "value": "1.4 ± 0.5", "unit": "h"}, {"measurement": "Tmax ± SD", "setting": "[3]; [7]", "value": "1.4 ± 0.8", "unit": "h"}, {"measurement": "AUC(0-inf.) ± SD", "setting": "[3]; [8]", "value": "25,159 ± 13,033 hr*ng/mL"}, {"measurement": "AUC(0-t)", "setting": "[3]; [8]", "value": "24,847 hr*ng/mL"}, {"measurement": "Cmax average of individuals", "setting": "[3]; [8]", "value": "15,333 ng/mL"}, {"measurement": "T1/2 ± SD", "setting": "[3]; [8]", "value": "1.5 ± 0.4", "unit": "h"}, {"measurement": "Tmax ± SD", "setting": "[3]; [8]", "value": "1.2 ± 0.5", "unit": "h"}, {"measurement": "AUC(0-inf.) ± SD", "setting": "[3]; [9]", "value": "34,305 ± 18,484 hr*ng/mL"}, {"measurement": "AUC(0-t)", "setting": "[3]; [9]", "value": "34,078 hr*ng/mL"}, {"measurement": "Cmax average of individuals", "setting": "[3]; [9]", "value": "18,700 ng/mL"}, {"measurement": "T1/2 ± SD", "setting": "[3]; [9]", "value": "1.0 ± 0.2", "unit": "h"}, {"measurement": "Tmax ± SD", "setting": "[3]; [9]", "value": "1.6 ± 0.7", "unit": "h"}]}
{"compound": "CCCCOC(=O)c1cc(O)c(O)c(O)c1", "note": "[butyl gallate]", "values": [{"measurement": "maximum SAMe plasma concentration (Cmax), uptake into the plasma", "setting": "[4]", "value": "did not result in pharmacokinetics even close to that of SAMe-propyl gallate formulations"}]}
{"compound": "CCOC(=O)c1cc(O)c(O)c(O)c1", "note": "[ethyl gallate]", "values": [{"measurement": "maximum SAMe plasma concentration (Cmax), uptake into the plasma", "setting": "[4]", "value": "superior uptake into the plasma"}]}
{"compound": "CC(C)CCOC(=O)c1cc(O)c(O)c(O)c1", "note": "[isoamyl gallate]", "values": [{"measurement": "maximum SAMe plasma concentration (Cmax), uptake into the plasma", "setting": "[4]", "value": "superior uptake into the plasma"}]}
{"compound": "CCCCCCCCOC(=O)c1cc(O)c(O)c(O)c1", "note": "[octyl gallate]", "values": [{"measurement": "maximum SAMe plasma concentration (Cmax), uptake into the plasma", "setting": "[4]", "value": "superior uptake into the plasma"}]}
{"compound": "CCCOC(=O)c1cc(O)c(O)c(O)c1", "note": "[propyl gallate]", "values": [{"measurement": "maximum SAMe plasma concentration (Cmax), uptake into the plasma", "setting": "[4]", "value": "superior uptake into the plasma"}, {"measurement": "effect of propyl gallate on SAMe transport across the PAMPA membrane", "setting": "[1]; propyl gallate at 2.0 mM", "value": "no effect on SAMe transport"}, {"measurement": "plasma SAMe Cmax and AUC, SAMe uptake into the blood", "setting": "[5]", "value": "superior and surprising ability of propyl gallate to increase SAMe uptake into the blood"}, {"measurement": "relationship of propyl gallate dose with SAMe uptake in vivo", "setting": "[3]; dog, in vivo", "value": "dose-response relationship with SAMe uptake in vivo"}]}
{"compound": "S-adenosyl-L-methionine disulfate tosylate [SAMe disulfate tosylate]", "values": [{"measurement": "apparent permeability coefficient Papp, apical to basolateral", "setting": "Caco-2 cell monolayers", "value": 0.41, "unit": "×10⁻⁶ cm/s"}, {"measurement": "apparent permeability coefficient Papp, basolateral to apical", "setting": "Caco-2 cell monolayers", "value": 0.5, "unit": "×10⁻⁶ cm/s"}]}
